Data set [1] can be described thus: logP by HPLC on reversed-phase columns (C 18), method [a], acidic range pH 2.3. The format is physicochemical. As for the experimental part:
(§1) The logP values were determined in accordance with EEC Directive 79/831 Annex V.A8 by HPLC (High Performance Liquid Chromatography) on reversed-phase columns (C 18), using the methods below:
[a] The determination is carried out in the acidic range at pH 2.3 using the mobile phases 0.1% aqueous phosphoric acid and acetonitrile, linear gradient from 10% acetonitrile to 95% acetonitrile.

The test system of a further data set is Sphaerotheca fuliginea. The data set is described as follows: Sphaerotheca test (cucumber) / protective. The format is in vivo. The note with it: Podosphaera fuliginea, 168 h, active compound concentration 500 ppm, evaluation 7 days after inoculation, read-out: efficacy. As for the experimental part: The plants are subsequently placed in a greenhouse at 70% relative atmospheric humidity and a temperature of 23° C.

The subject of another data set is Leptosphaeria nodorum. Kind of data set: Leptosphaeria nodorum test (wheat) / protective. The format is in vivo. The conditions noted are these: Parastagonospora nodorum, active compound concentration 500 ppm, evaluation 7-9 days after inoculation, read-out: efficacy. As for the experimental part: Thereafter, the plants are placed in a greenhouse at 90% relative atmospheric humidity and a temperature of 22° C.

The nature of data set [2]: logP by LC-MS on reversed-phase columns (C 18), method [b], acidic range pH 2.7. The format is physicochemical. The note with it: pH 2.7, log p. As for the experimental part:
as §1
[b] The LC-MS determination in the acidic range is carried out at pH 2.7 using the mobile phases 0.1% aqueous formic acid and acetonitrile (contains 0.1% formic acid), linear gradient from 10% acetonitrile to 95% acetonitrile.

Data set [3] in a line: logP by LC-MS on reversed-phase columns (C 18), method [c], neutral range pH 7.8. The format is physicochemical. The note with it: pH 7.8. As for the experimental part: as §1
[c] The LC-MS determination in the neutral range is carried out at pH 7.8 using the mobile phases 0.001 molar aqueous ammonium bicarbonate solution and acetonitrile, linear gradient from 10% acetonitrile to 95% acetonitrile.

For a further data set, the system named is Pyricularia oryzae. Kind of data set: whole plant or invertebrate. The note with it: 120 h, read-out: efficacy. The format is in vivo.

Some results are limits rather than exact numbers.

What is called chromatographic logP is lipophilicity estimated from chromatographic retention. With `COCC(O)c1cccc([N+](=O)[O-])c1` (centres unmarked) [2-methoxy-1-(3-nitrophenyl)ethanol, 2-Methoxy-1-(3-nitrophenyl)ethanol], the chromatographic logP in data set [1] (pH 2.3, logP (pH2.3)) was determined as 1.35.

As for `COCc1cccc(Nc2ncc(Cl)c(NC(C)(C)C(C)=O)n2)c1` [Example 9], the log p in data set [1] (pH 2.3) was 1.99[a].

For the compound `CSC(C)c1cccc(Nc2ncc(C(F)(F)F)c(NC3CCC3)n2)c1` (centres unmarked) [Example 18], the pest or weed control at 500 ppm in the data set on Sphaerotheca fuliginea and with Leptosphaeria nodorum was no less than 70% each time. In addition, the chromatographic logP in data set [2] was determined as 4.34.

Take `COCc1cccc(Nc2ncc(Cl)c(NCC(F)F)n2)c1` [Example 22]: the pest or weed control at 500 ppm in the data set on Sphaerotheca fuliginea and in the data set with Leptosphaeria nodorum was no less than 70% throughout. The same compound registered a chromatographic logP in data set [2] of 1.99.

Regarding `CCCSc1cccc(Nc2ncc(Cl)c(NCC(F)(F)F)n2)c1` [Example 30], in the data set on Sphaerotheca fuliginea, the pest or weed control at 500 ppm is no less than 70%. The chromatographic logP in data set [2] was found to be 4.08.

`CCSCc1cccc(Nc2ncc(Cl)c(NCC(F)(F)F)n2)c1` [Example 32]: the pest or weed control at 500 ppm with Sphaerotheca fuliginea is no less than 70%. Also, the chromatographic logP in data set [2] came to 3.49.

Regarding `COCCOc1cccc(Nc2ncc(Br)c(NC3CC3)n2)c1` [Example 67], the pest or weed control at 500 ppm in the data set on Sphaerotheca fuliginea and in the data set with Leptosphaeria nodorum was no less than 70% each time. In data set [2], the chromatographic logP is 1.95.

As for `CCN(C)c1nc(Nc2cccc(COC)c2)ncc1Cl` [Example 85], the pest or weed control at 500 ppm with Sphaerotheca fuliginea and in the data set with Leptosphaeria nodorum was no less than 70% throughout. The chromatographic logP was determined as 2.14 in data set [2] and 3.7 in data set [3].

Consider `CCCSc1ccc(Nc2ncc(Cl)c(NC3CC3)n2)cc1` [Example 96], for which the pest or weed control at 500 ppm in the data set with Leptosphaeria nodorum was no less than 70%. Further, the pest or weed control at 250 ppm in the data set with Pyricularia oryzae is no less than 80%. Also, in data set [2], the chromatographic logP stood at 3.09.

In the case of `CCSC(CC)c1cccc(Nc2ncc(Cl)c(NC3CC3)n2)c1` (centres unmarked) [Example 115], the pest or weed control at 500 ppm in the data set with Sphaerotheca fuliginea and in the data set on Leptosphaeria nodorum was no less than 70% in each case. Also, the results for the chromatographic logP in data set [2] and in data set [3] were 3.33 and 4.69, respectively.

For the compound `CCCCS(=O)(=O)c1cccc(Nc2ncc(Cl)c(NC3CC3)n2)c1` [Example 123], the pest or weed control at 500 ppm in the data set on Leptosphaeria nodorum is no less than 70%. Further, the figures for the chromatographic logP in data set [2] and in data set [3] were 2.65 and 3.18, respectively.

`CCCCSc1cccc(Nc2ncc(C(F)(F)F)c(NC3CCC3)n2)c1` [Example 128]: the pest or weed control at 500 ppm in the data set with Leptosphaeria nodorum is no less than 70%. Further, the chromatographic logP came out at 5.55 in data set [2] and 5.78 in data set [3].

On to `COCc1cccc(Nc2ncc(Cl)c(NCC(C)C)n2)c1` [Example 148], for which the pest or weed control at 500 ppm in the data set with Sphaerotheca fuliginea and in the data set with Leptosphaeria nodorum was no less than 70% throughout. Besides, the chromatographic logP in data set [2] was 2.08.

Regarding `CCCNc1nc(Nc2cccc(COC)c2)ncc1Cl` [Example 149], the pest or weed control at 500 ppm in the data set on Sphaerotheca fuliginea and in the data set on Leptosphaeria nodorum was no less than 70% throughout. The compound also had a chromatographic logP in data set [2] of 1.72.

For the compound `CCS(=O)(=O)C(C)c1cccc(Nc2ncc(Cl)c(NC(C)C)n2)c1` (centres unmarked) [Example 150], the pest or weed control at 500 ppm in the data set with Sphaerotheca fuliginea and in the data set on Leptosphaeria nodorum was no less than 70% in each case. The results for the chromatographic logP in data set [2] and in data set [3] were 1.65 and 2.89, respectively.

As to `CCCSc1cccc(Nc2ncc(C(F)(F)F)c(NC3CCC3)n2)c1` [Example 155], the pest or weed control at 500 ppm with Leptosphaeria nodorum is no less than 70%. Besides, the chromatographic logP in data set [2] was 5.01; in data set [3], 5.43.

Consider `CCC(C)[S+]([O-])C(C)c1cccc(Nc2ncc(C(F)(F)F)c(NC3CC3)n2)c1` (centres unmarked) [Example 160], for which the pest or weed control at 500 ppm in the data set with Sphaerotheca fuliginea and with Leptosphaeria nodorum was no less than 70% in each case. Further, the chromatographic logP in data set [2] came to 2.85; in data set [3], 3.11.

For `CC(C)CS(=O)(=O)c1cccc(Nc2ncc(Cl)c(NC3CC3)n2)c1` [Example 161], the pest or weed control at 500 ppm in the data set with Leptosphaeria nodorum is no less than 70%. The chromatographic logP in data set [2] was 2.64; in data set [3] it was 3.23.

In the case of `CCCCS(=O)(=O)c1cccc(Nc2ncc(Cl)c(NC3CCC3)n2)c1` [Example 170], in the data set on Leptosphaeria nodorum, the pest or weed control at 500 ppm was no less than 70%. Also, the chromatographic logP in data set [2] is 3.09; in data set [3] it was 3.69.

As to `CCC(C)S(=O)(=O)C(C)c1cccc(Nc2ncc(C(F)(F)F)c(NC3CC3)n2)c1` (centres unmarked) [Example 187], the pest or weed control at 500 ppm with Sphaerotheca fuliginea and in the data set with Leptosphaeria nodorum was no less than 70% in each case. The chromatographic logP is 3.14 in data set [2] and 3.34 in data set [3].

Take `CCC(C)Sc1cccc(Nc2ncc(C(F)(F)F)c(NC3CC3)n2)c1` (centres unmarked) [Example 188]: the pest or weed control at 500 ppm in the data set with Leptosphaeria nodorum was no less than 70%. For the same compound, the chromatographic logP in data set [2] is 4.9; in data set [3] it was 5.01.

Turning to `CCOCCSc1cccc(Nc2ncc(Cl)c(NC3CC3)n2)c1` [Example 189], in the data set on Leptosphaeria nodorum, the pest or weed control at 500 ppm is no less than 70%. In addition, the chromatographic logP in data set [2] amounted to 2.7; in data set [3], 3.76.

As for `COCc1cccc(Nc2ncc(Cl)c(N(C)C3CC3C)n2)c1` (centres unmarked) [Example 199], the pest or weed control at 500 ppm in the data set on Sphaerotheca fuliginea and in the data set on Leptosphaeria nodorum was no less than 70% each time. Also, the chromatographic logP in data set [2] came out at 3.23; in data set [3], 4.36.

Regarding `CCCCS(=O)(=O)c1cccc(Nc2ncc(C(F)(F)F)c(NC3CCC3)n2)c1` [Example 202], the pest or weed control at 500 ppm in the data set with Leptosphaeria nodorum was no less than 70%. The chromatographic logP in data set [2] turned out to be 3.91; in data set [3] it was 4.01.

Turning to `CCCC[S+]([O-])c1cccc(Nc2ncc(C(F)(F)F)c(NC3CCC3)n2)c1` (centres unmarked) [Example 203], the pest or weed control at 500 ppm in the data set on Sphaerotheca fuliginea and in the data set with Leptosphaeria nodorum was no less than 70% in each case. In addition, the chromatographic logP amounted to 3.4 in data set [2] and 3.67 in data set [3].

On to `CCSCc1cccc(Nc2ncc(Br)c(NC3CC3)n2)c1` [Example 218], for which the pest or weed control at 500 ppm in the data set on Sphaerotheca fuliginea and in the data set with Leptosphaeria nodorum was no less than 70% each time. This compound also registered a chromatographic logP in data set [2] of 2.79.

On to `CCSCc1cccc(Nc2ncc(Cl)c(NC3CCC3)n2)c1` [Example 219], for which the pest or weed control at 500 ppm in the data set with Sphaerotheca fuliginea and in the data set with Leptosphaeria nodorum was no less than 70% each time. The values for the chromatographic logP in data set [2] and in data set [3] were 3 and 4.44, respectively.

With `COCC(=O)c1cccc(Nc2ncc(C(F)(F)F)c(NC3CC3)n2)c1` [Example 225], the pest or weed control at 500 ppm in the data set on Sphaerotheca fuliginea and with Leptosphaeria nodorum was no less than 70% each time. Further, in data set [2], the chromatographic logP is 2.54.

As for `COC(C)c1cccc(Nc2ncc(Cl)c(NC3CC3C)n2)c1` (centres unmarked) [Example 228], the pest or weed control at 500 ppm in the data set with Sphaerotheca fuliginea and with Leptosphaeria nodorum was no less than 70% throughout. The chromatographic logP in data set [2] turned out to be 0.95.

As for `COC(C)c1cccc(Nc2ncc(C(F)(F)F)c(NC3CC3C)n2)c1` (centres unmarked) [Example 229], the pest or weed control at 500 ppm in the data set on Leptosphaeria nodorum is no less than 70%. The results for the chromatographic logP in data set [2] and in data set [3] were 3.61 and 4.1, respectively.

Turning to `CCSc1cccc(Nc2ncc(C(F)(F)F)c(NC3CC(C)C3)n2)c1` (centres unmarked) [Example 234], in the data set on Leptosphaeria nodorum, the pest or weed control at 500 ppm is no less than 70%. The chromatographic logP in data set [2] was determined as 4.09; in data set [3], 5.34.

Turning to `CCCSc1cccc(Nc2ncc(C(F)(F)F)c(NC3CC3C)n2)c1` (centres unmarked) [Example 235], the pest or weed control at 500 ppm with Leptosphaeria nodorum is no less than 70%. The chromatographic logP stood at 4.9 in data set [2] and 5.23 in data set [3].

Source of the values: patent US20110245284A1, “Alkoxy- and Alkylthio-Substituted Anilinopyrimidines” (Bayer CropScience AG, priority 2008, published 2011).
